The record followed here is paper PMC5650741 (ACS infectious diseases, 2017).

In the assay the target is T1, E. coli DXP synthase (DXPS) (Escherichia coli, UniProt P77488).
T1 sequence (P77488 2-620): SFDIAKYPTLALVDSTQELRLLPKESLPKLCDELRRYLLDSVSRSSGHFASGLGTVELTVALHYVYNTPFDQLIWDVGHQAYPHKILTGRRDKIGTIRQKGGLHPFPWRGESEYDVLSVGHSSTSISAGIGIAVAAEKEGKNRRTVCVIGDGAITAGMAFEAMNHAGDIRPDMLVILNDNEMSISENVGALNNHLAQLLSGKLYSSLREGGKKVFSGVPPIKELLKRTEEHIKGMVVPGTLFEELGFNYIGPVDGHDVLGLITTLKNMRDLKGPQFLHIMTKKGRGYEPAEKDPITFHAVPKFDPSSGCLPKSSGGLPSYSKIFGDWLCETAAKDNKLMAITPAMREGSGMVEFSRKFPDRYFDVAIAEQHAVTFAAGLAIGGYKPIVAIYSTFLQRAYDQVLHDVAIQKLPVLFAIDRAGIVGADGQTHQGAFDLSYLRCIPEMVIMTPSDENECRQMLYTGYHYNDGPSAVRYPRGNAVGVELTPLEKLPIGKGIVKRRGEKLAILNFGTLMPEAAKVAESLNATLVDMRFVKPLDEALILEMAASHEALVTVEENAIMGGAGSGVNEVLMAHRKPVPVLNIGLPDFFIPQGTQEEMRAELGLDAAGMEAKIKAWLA
The experiment in a line: IspC-coupled NADPH consumption at […] nm. It counts as biochemical.

What is called Ki is the dissociation constant of the complex between target and ligand, obtained from inhibition or displacement. Read a high Ki as a looser hold on the target.

In turn, `CCCOP(=O)(O)C(C)=O` [compound 3, alkylAP 3] gave a Ki of 7.1 ± 0.8 µM. `CCCCCCCCOP(=O)(O)C(C)=O` [compound 7, octylacetylphosphonate] came in with a Ki of 1.4 ± 0.2 µM.
